Literature values as cited in patent publication US6395294B1, “Method of visualization of the vitreous during vitrectomy” (priority 2000, dated 2002).
Where two headings read alike, the source gives them in different places. One block for each compound: values may come before it.

Assays:
[1] = intravitreal injections
[2] = intravenous
blood retinal barrier = details: intravitreal, experimental
[3] = primate eyes
[4] = human eyes
[5] = intravitreal, experimental
[6] = rabbit eyes

SMILES: C[C@@H]1C[C@H]2[C@@H]3CCC4=CC(=O)C=C[C@]4(C)[C@@]3(F)[C@@H](O)C[C@]2(C)[C@@]1(O)C(=O)COP(=O)(O)O [dexamethasone sodium phosphate]
retinal toxicity (dose of 2 mg): did not show retinal toxicity

aqueous formation rate and outflow facility compared with saline injection [1]: no difference
intraocular pressure ([1]; both drug and saline groups, because of a decrease in outflow facility): increased intraocular pressure
SMILES: C[C@]12CCC(=O)C=C1CC[C@@H]1[C@@H]2[C@@H](O)C[C@@]2(C)[C@H]1CC[C@]2(O)C(=O)CO [hydrocortisone]

SMILES: C[C@H]1C[C@@H]2[C@H]([C@@H](O)C[C@@]3(C)[C@H]2CC[C@]3(O)C(=O)COC(=O)CCC(=O)[O-])[C@@]2(C)C=CC(=O)C=C12.[Na+] [solumedrol, methylprednisolone sodium succinate]
effect on diabetic eyes with rubeosis iridis [2]: quiets diabetic eyes with rubeosis iridis

SMILES: CC1(C)O[C@@H]2C[C@H]3[C@@H]4CCC5=CC(=O)C=C[C@]5(C)[C@@]4(F)[C@@H](O)C[C@]3(C)[C@]2(C(=O)CO)O1 [triamcinolone, triamcinolone acetonide]
retinal toxicity (vitrectomized and nonvitrectomized eyes, dosage of 2-4 mg): no retinal toxicity
breakdown of the blood retinal barrier (blood retinal barrier): reduce the breakdown of the blood retinal barrier
tolerance in the eye [3]: well tolerated
tolerance in the eye [4]: well tolerated
angiogenesis [5]: inhibit angiogenesis
incidence of proliferative vitreoretinopathy and subsequent retinal detachment [5]: reduce the incidence of proliferative vitreoretinopathy and subsequent retinal detachment
preretinal and optic disc neovascularization [5]: inhibit preretinal and optic disc neovascularization
tolerance in the eye [6]: well tolerated
